Tests used:
Hs ODCase = biological target: T1, Hs ODCase (Homo sapiens, UniProt P11172); test: Reversible (competitive) inhibition of ODCase, calorimetric assay; type: biochemical; settings: 37° C., 60 nM enzyme
T1 construct: ODCase region of human UMP synthase
Protocol: The stock solution of enzyme (60 μM) was prepared in 50 mM Tris (pH 7.5), 20 mM DTT, and 40 mM NaCl and incubated overnight at 4° C. This stock sample was later used to prepare the enzyme assay samples. The enzyme was kept on ice during the experiment. The enzyme stock was diluted with 50 mM Tris buffer containing 1 mM DTT to prepare 60 nM enzyme assay samples. The final substrate concentration was 15 or 20 μM. Concentrated samples of inhibitors were prepared in 50 mM Tris (pH 7.5). The volumes and concentrations of the enzyme and substrate were the same as described above for the reaction without inhibitor. All three compounds were tested in a competitive inhibition assay where enzyme is mixed with the inhibitor and the reaction is initiated by the substrate addition. Assay samples were prepared in 50 mM Tris, 1 mM DTT. The final assay concentration of 5-F-6-azido-UMP was 0, 0.25, 0.50, 0.75, 1.0 μM. The assay samples were prepared with 0, 0.2, 0.4, 1.0, and 2.0 μM and 0, 50, 100, 250, 500 μM 5-fluoro-6-ethyl-UMP.
The initial data analyses were done in Origin 7.0 software. The raw data representing the heat change over time were converted to the reaction rate at each recorded time point. A Michaelis-Menten plot was constructed and the data were fitted to MM equation (Eq. 1) to determine the kinetic parameters KM and kcat. The molar enthalpy (ΔH) was also automatically calculated.
To calculate the Ki the data were exported to GraFit 5.0 program. The data points were fitted to the competitive inhibition equation (Eq. 2) and the Ki was estimated from the Dixon plot.

Mt ODCase = Mt ODCase (Methanothermobacter thermautotrophicus, UniProt O26232); test: biochemical; set-up: species or system M. thermoautotrophicum; settings: reversible inhibition, 20 nM enzyme, 40 μM OMP
[1] = tested on: leukemias (OCI-AML-1, OCI-AML-2, SKW3), lymphomas (OCI-Ly-7), multiple myeloma (OCI-My-2); test: In vitro cell proliferation assay (WST.1), summary over cell lines; type: cell-based; settings: Homo sapiens; OCI-AML-1, OCI-AML-2, SKW3, OCI-Ly-7, OCI-My-2; read-out: IC50 values, range over cell lines
Protocol: (§1) These cell lines were grown in Iscove's MDM supplemented with 5% fetal calf serum (FCS), 50 μM 2-mercaptoethanol, 100 μg/ml penicillin, and 100 μg/ml streptomycin. Cell lines growing in suspension were maintained at 0.5-1.5×10^6 cell/ml, while adherent cell lines were maintained at subconfluent densities.
(§2) Cell lines were seeded in triplicate at 10^4 cells/100 μl in 96-well plates. Peripheral blood mononuclear cells were seeded in triplicate at 10^5 cells/100 μl in 96-well plate. Different test compounds were added immediately at final concentrations ranging between 0 to 100 μM. All compounds were dissolved in sterile deionized water, so water was added to the control wells. On day 3, WST.1 assay (Roche) was used to measure the effect of different test compounds on cell growth. WST.1 assay is a calorimetric assay for the nonradioactive quantification of cell proliferation, cell viability, and cytotoxicity. The assay was performed according to manufacturer's instructions (Roche). It relies on the cleavage by cellular enzymes of WST.1 (water soluble tetrazolium salt: 4-[3-(4-iodophenyl)-2-(4-nitrophenyl)-2H-5-tetrazolio]-1,3-benzene disulfonate) to formazan. The amount of formazan dye formed correlates to the number of metabolically active cells in the culture and is readily read in an ELISA microplate reader using an absorbance wavelength of 440 nm. These OD values are plotted against concentrations of different compounds and IC50 is determined for each compound.

OCI-AML-1 [2] = test: Apoptosis assay (Annexin V/PI, FACS); type: cell-based, human; settings: OCI-AML-1, 4 μM
Protocol: (§3) Cells were seeded in duplicate at 10^5 cells/ml in 24-well plates. 4 μM final concentration of compounds Io, In or Iag (Table 2) were added immediately after seeding. Water was added to the control wells. Every 24 hr, cells were harvested, washed in PBS, and stained with Annexin V/propidium iodide (PI) (1:200) using Annexin-V-FLUOS staining kit (Roche) according to the manufacturer's instructions. Annexin V is a Ca^2+− dependent phospholipids-binding protein with high affinity for phosphatidylserine (PS). It can be used as a probe to detect PS exposure on the outer leaflet of the cell membrane and is therefore widely used for detection of apoptotic cells. Unlike apoptotic cells (Annexin V^+/PI^−), necrotic cells are Annexin V^+PI^+. PI is a DNA stain. FACS was used to analyze the staining.
(§4) To determine whether reduced expansion of different cell lines in culture with Io, In, and Iag could be attributed to a decrease in cell survival, we stained treated and control cells with Annexin V and PI. Four cell lines (OCI-AML-1, OCI-Ly7, OCI-My2, and SKW3) were cultured in presence of 4 μM of […] for 4 days. Cells were harvested daily and Annexin V/PI staining was done by FACS. Our results clearly show an increase in the percentage of apoptotic (annexin V^+PI^−) cells cultured with Io, In, or Iag compared to the control cells (Table 6). Increased cell death was first observed on day 2 of culture.

SKW3 [3] = test: Apoptosis assay (Annexin V/PI, FACS); type: cell-based, human; settings: SKW3, 4 μM
Protocol: as §3, §4

OCI-Ly-7 [4] = test: Apoptosis assay (Annexin V/PI, FACS); type: cell-based, human; settings: OCI-Ly-7, 4 μM
Protocol: as §3, §4

OCI-My-2 [5] = test: Apoptosis assay (Annexin V/PI, FACS); type: cell-based, human; settings: OCI-My-2, 4 μM
Protocol: as §3, §4

LOX = test: In vitro cell proliferation assay (WST.1, Table 5); type: cell-based, human; settings: day 3
Protocol: as §1, §2

OCI-AML-1 [6] = test: In vitro cell proliferation assay (WST.1, Table 5); type: cell-based; settings: Homo sapiens, 72 h; OCI-AML-1, day 3
Protocol: as §1, §2

PC3 = test: In vitro cell proliferation assay (WST.1, Table 5); type: cell-based; settings: Homo sapiens, PC-3, 72 h; PC3, day 3
Protocol: as §1, §2

SKW3 [7] = test: In vitro cell proliferation assay (WST.1, Table 5); type: cell-based; settings: Homo sapiens, 72 h; SKW3, day 3
Protocol: as §1, §2

MCF7 = test: In vitro cell proliferation assay (WST.1, Table 5); type: cell-based; settings: Homo sapiens, 72 h; MCF7, day 3
Protocol: as §1, §2

MDA468 = test: In vitro cell proliferation assay (WST.1, Table 5); type: cell-based; settings: Homo sapiens, 72 h; MDA468, day 3
Protocol: as §1, §2

OCI-AML-2 = test: In vitro cell proliferation assay (WST.1, Table 5); type: cell-based; settings: Homo sapiens, OCI-AML2, 72 h; OCI-AML-2, day 3
Protocol: as §1, §2

OCI-Ly-7 [8] = test: In vitro cell proliferation assay (WST.1, Table 5); type: cell-based; settings: Homo sapiens, OCI-Ly7, 72 h; OCI-Ly-7, day 3
Protocol: as §1, §2

OCI-My-2 [9] = test: In vitro cell proliferation assay (WST.1, Table 5); type: cell-based; settings: Homo sapiens, 72 h; OCI-My-2, day 3
Protocol: as §1, §2

CCD967 = test: In vitro cell proliferation assay (WST.1, Table 5); type: cell-based; settings: Homo sapiens, CCD-967, 72 h; CCD967 normal skin line, day 3
Protocol: as §1, §2

SNB19 = test: In vitro cell proliferation assay (WST.1, Table 5); type: cell-based; settings: Homo sapiens, SNB-19, 72 h; SNB19, day 3
Protocol: as §1, §2

T47D = test: In vitro cell proliferation assay (WST.1, Table 5); type: cell-based; settings: Homo sapiens, 72 h, day 3
Protocol: as §1, §2

OCVR4 = test: In vitro cell proliferation assay (WST.1, Table 5); type: cell-based; settings: Homo sapiens, 72 h; OCVR4, day 3
Protocol: as §1, §2

HS58T = test: In vitro cell proliferation assay (WST.1, Table 5); type: cell-based; settings: Homo sapiens, 72 h, day 3
Protocol: as §1, §2

COLO205 = test: In vitro cell proliferation assay (WST.1, Table 5); type: cell-based; settings: Homo sapiens, COLO 205, 72 h; COLO205, day 3
Protocol: as §1, §2

Row | SMILES | Ki (Hs ODCase) | Ki (Mt ODCase) | IC50 [1] | Fold increase in % of apoptotic (annexinV+PI−) cells: drug-treated vs.control (OCI-AML-1 [2]; day 1) | Fold increase in % of apoptotic (annexinV+PI−) cells: drug-treated vs.control (OCI-AML-1 [2]; day 2) | Fold increase in % of apoptotic (annexinV+PI−) cells: drug-treated vs.control (OCI-AML-1 [2]; day 3) | Fold increase in % of apoptotic (annexinV+PI−) cells: drug-treated vs.control (SKW3 [3]; day 1) | Fold increase in % of apoptotic (annexinV+PI−) cells: drug-treated vs.control (SKW3 [3]; day 2) | Fold increase in % of apoptotic (annexinV+PI−) cells: drug-treated vs.control (SKW3 [3]; day 3) | Fold increase in % of apoptotic (annexinV+PI−) cells: drug-treated vs.control (OCI-Ly-7 [4]; day 1) | Fold increase in % of apoptotic (annexinV+PI−) cells: drug-treated vs.control (OCI-Ly-7 [4]; day 2) | IC50 (LOX; Homo sapiens, 72 h) | IC50 (OCI-AML-1 [6]) | IC50 (PC3) | IC50 (SKW3 [7]) | IC50 (MCF7) | IC50 (MDA468) | IC50 (OCI-AML-2) | IC50 (OCI-Ly-7 [8]) | IC50 (OCI-My-2 [9]) | also measured
1 | O=c1[nH]c(=O)n([C@@H]2O[C@H](COP(=O)(O)O)[C@@H](O)[C@H]2O)cc1F [Compound 5-F-UMP, 5-F-UMP, reference compound] | 97800 ± 5900 nM | 646000 ± 15000 nM | – | – | – | – | – | – | – | – | – | – | – | – | – | – | – | – | – | – | –
2 | O=Cc1c(F)c(=O)[nH]c(=O)n1C1OC(CO)C(O)C1O (stereo not shown) [Iag] | – | – | 300 to 2100 nM | 1.4 fold | 5.3 fold | 14 fold | 1.2 fold | 4.6 fold | 5.2 fold | 0.82 fold | 2.1 fold | 300 nM | 300 nM | > 100000 nM | 300 nM | 23700 nM | 1900 nM | 700 nM | 600 nM | 400 nM | Fold increase in % of apoptotic (annexinV+PI−) cells: drug-treated vs.control (OCI-Ly-7 [4]; day 3): 6.2 fold; Fold increase in % of apoptotic (annexinV+PI−) cells: drug-treated vs.control (OCI-My-2 [5]; day 1): 0.77 fold; Fold increase in % of apoptotic (annexinV+PI−) cells: drug-treated vs.control (OCI-My-2 [5]; day 2): 1.7 fold; Fold increase in % of apoptotic (annexinV+PI−) cells: drug-treated vs.control (OCI-My-2 [5]; day 3): 2.7 fold; IC50 (LOX): 400 nM
3 | CCc1c(F)c(=O)[nH]c(=O)n1C1OC(CO)C(O)C1O (stereo not shown) [Iah] | 353 ± 10 nM | 29000 ± 300 nM | 300 to 2100 nM | – | – | – | – | – | – | – | – | 4500 nM | 2100 nM | > 100000 nM | 1200 nM | 31400 nM | 5300 nM | – | 1900 nM | 1400 nM | –
4 | Nc1c(F)c(=O)[nH]c(=O)n1[C@@H]1O[C@H](CO)[C@@H](O)[C@H]1O [In, 5-Fluoro-6-amino uridine] | 16600 ± 700 nM | – | 300 to 2100 nM | – | – | – | – | – | – | – | – | 3400 nM | 700 nM | > 4000 nM | 600 nM | 1400 nM | 2600 nM | 900 nM | 1300 nM | 900 nM | IC50 (CCD967): > 4000 nM; IC50 (SNB19): > 4000 nM; IC50 (T47D): > 4000 nM; IC50 (OCVR4): 2000 nM; IC50 (HS58T): > 4000 nM; IC50 (COLO205): 3300 nM
5 | [N-]=[N+]=Nc1c(F)c(=O)[nH]c(=O)n1[C@@H]1O[C@H](CO)[C@@H](O)[C@H]1O [Io, 5-fluoro-6-azido uridine] | – | 357 ± 28 nM | 300 to 2100 nM | 1.5 fold | 9.3 fold | 16 fold | 1.2 fold | 4.7 fold | 4.4 fold | 0.74 fold | 1.9 fold | 2300 nM | 600 nM | > 4000 nM | 400 nM | 1000 nM | 1800 nM | 700 nM | 700 nM | 600 nM | Fold increase in % of apoptotic (annexinV+PI−) cells: drug-treated vs.control (OCI-Ly-7 [4]; day 3): 6.6 fold; Fold increase in % of apoptotic (annexinV+PI−) cells: drug-treated vs.control (OCI-My-2 [5]; day 1): 0.86 fold; Fold increase in % of apoptotic (annexinV+PI−) cells: drug-treated vs.control (OCI-My-2 [5]; day 2): 1.9 fold; Fold increase in % of apoptotic (annexinV+PI−) cells: drug-treated vs.control (OCI-My-2 [5]; day 3): 2.8 fold; IC50 (CCD967): > 4000 nM; IC50 (SNB19): > 4000 nM; IC50 (T47D): > 4000 nM; IC50 (OCVR4): 1500 nM; IC50 (HS58T): > 4000 nM; IC50 (COLO205): 3800 nM

— patent US20100056468A1, “Pyrimidine Derivatives As Anticancer Agents” (University Health Network, priority 2007, published 2010)
